Data from patent US20140045824A1, “METHOD FOR PRODUCING COMPLEX CRYSTAL AND METHOD FOR SCREENING COMPLEX CRYSTAL” (priority 2011, published 2014).

Tests used:
Type in all cases: physicochemical
[1] = Cocrystal screening by slurry method (Comparative Examples 4-1 to 4-6), powder X-ray diffraction; parameters: key: A cocrystal was completely formed.; B: A mixture of a cocrystal and the host compound or guest compound was formed.; C: A cocrystal was not formed (a mixture of the host compound and the guest compound was formed).; —: A residue was not obtained; conditions: host carbamazepine, slurry in tetrahydrofuran, room temperature 7 days
Method: (§1) 3 mg (0.0127 mmoles) of carbamazepine and a guest compound shown in Table 4 in an equimolar amount (0.0127 mmoles) to carbamazepine were weighed and put into a glass container, to which was then added 60 μL of water. These were shaken at room temperature for 7 days, and the obtained residues were subjected to powder X-ray diffraction measurement. 3 mg (0.0127 mmoles) of carbamazepine and a guest compound shown in Table 4 in an equimolar amount (0.0127 mmoles) to carbamazepine were weighed and put into a glass container, to which was then added 60 μL of ethanol. These were shaken at room temperature for 7 days, and the obtained residues were subjected to powder X-ray diffraction measurement. 3 mg (0.0127 mmoles) of carbamazepine and a guest compound shown in Table 4 in an equimolar amount (0.0127 mmoles) to carbamazepine were weighed and put into a glass container, to which was then added 60 μL of tetrahydrofuran. These were shaken at room temperature for 7 days, and the obtained residues were subjected to powder X-ray diffraction measurement. 3 mg (0.0127 mmoles) of carbamazepine and a guest compound shown in Table 4 in an equimolar amount (0.0127 mmoles) to carbamazepine were weighed and put into a glass container, to which was then added 60 μL of toluene. These were shaken at room temperature for 7 days, and the obtained residues were subjected to powder X-ray diffraction measurement. 3 mg (0.0127 mmoles) of carbamazepine and a guest compound shown in Table 4 in an equimolar amount (0.0127 mmoles) to carbamazepine were weighed and put into a glass container, to which was then added 60 μL of ethyl acetate. These were shaken at room temperature for 7 days, and the obtained residues were subjected to powder X-ray diffraction measurement. 3 mg (0.0127 mmoles) of carbamazepine and a guest compound shown in Table 4 in an equimolar amount (0.0127 mmoles) to carbamazepine were weighed and put into a glass container, to which was then added 60 μL of acetone. These were shaken at room temperature for 7 days, and the obtained residues were subjected to powder X-ray diffraction measurement.

[2] = Cocrystal screening by heating method without menthol (Comparative Example 6); parameters: key: A cocrystal was completely formed.; B: A mixture of a cocrystal and the host compound or guest compound was formed.; C: A cocrystal was not formed (a mixture of the host compound and the guest compound was formed); conditions: host carbamazepine, equimolar guest, no menthol, 4 hours at 80° C.
Method: Carbamazepine and a guest compound shown in Table 4 in an equimolar amount to carbamazepine were weighed and mixed using an agate mortar. At that time, particles having a large size to an extent that they could be distinguished through visual inspection were grinded on the agate mortar. 10 mg of this mixed powder was weighed and put into a test tube and heated for 4 hours in an oven at 80° C., and the obtained solids were subjected to powder X-ray diffraction measurement and thermal analysis.

[3] = Cocrystal screening by slurry method (Comparative Examples 4-1 to 4-6), powder X-ray diffraction; parameters: key: A cocrystal was completely formed.; B: A mixture of a cocrystal and the host compound or guest compound was formed.; C: A cocrystal was not formed (a mixture of the host compound and the guest compound was formed); conditions: host carbamazepine
Method: as §1

[4] = Cocrystal screening by heat melting 1-menthol (Example 2), powder X-ray diffraction and thermal analysis; parameters: key: A cocrystal was completely formed.; B: A mixture of a cocrystal and the host compound or guest compound was formed.; C: A cocrystal was not formed (a mixture of the host compound and the guest compound was formed); conditions: host carbamazepine, equimolar guest, 1-menthol added, 10 hours at 80° C.
Method: Carbamazepine and a guest compound shown in Table 4 in an equimolar amount to carbamazepine were weighed and mixed using an agate mortar. […] Thereafter, the obtained mixed powder of carbamazepine, the guest compound, and 1-menthol was heated for 10 hours in an oven at 80° C., and the obtained solids were subjected to powder X-ray diffraction measurement and thermal analysis.

[5] = Cocrystal screening by mixing and grinding method (Comparative Example 5); parameters: key: A cocrystal was completely formed.; B: A mixture of a cocrystal and the host compound or guest compound was formed.; C: A cocrystal was not formed (a mixture of the host compound and the guest compound was formed); conditions: host carbamazepine, equimolar guest, mixed/ground in agate mortar
From the text: Carbamazepine and a guest compound shown in Table 4 in an equimolar amount to carbamazepine were weighed and mixed using an agate mortar. At that time, particles having a large size to an extent that they could be distinguished through visual inspection were grinded on the agate mortar. The obtained solids were subjected to powder X-ray diffraction measurement and thermal analysis.

O=C(O)CC(=O)O [Malonic acid]
Cocrystal formation, Comparative Example 4-3 [1]: — | Cocrystal formation, Comparative Example 6 [2]: B | Cocrystal formation, Comparative Example 4-6 ([3]; slurry in acetone, room temperature 7 days): C | Cocrystal formation, Comparative Example 4-2 ([3]; slurry in ethanol, room temperature 7 days): C | Cocrystal formation, Comparative Example 4-5 ([3]; slurry in ethyl acetate, room temperature 7 days): A | Cocrystal formation, Comparative Example 4-4 ([3]; slurry in toluene, room temperature 7 days): B | Cocrystal formation, Comparative Example 4-1 ([3]; slurry in water, room temperature 7 days): C | Cocrystal formation, Comparative Example 4* ([3]; slurry summary: A if a cocrystal was formed in any one of Comparative Examples 4-1 to 4-6): A | Cocrystal formation, Example 2 [4]: A | Cocrystal formation, Comparative Example 5 [5]: C
